Counter-ions that a name gives are not always drawn.
Tests used:
[1] = tested on: A549 tumor cells; test: Antitumoral efficacy in subcutaneous xenograft A549 lung carcinoma model; assay type: in vivo, female athymic nude mice; settings: necropsy day 46; pioglitazone HCl 10 mg/kg, pamapimod 100 mg/kg, alone or combined, p.o. once daily days 22-45
Experimental: Evaluation of the Antitumoral Efficacy of Pamapimod and Pioglitazone Hydrochloride Alone and in Combination in a Subcutaneous Xenograft A549 Lung Carcinoma Model in Female Athymic Nude Mice In Vivo The study consisted of 4 experimental groups, each containing 10 female athymic nude mice after randomization (for details, see Table 1 below). On day 0, 2×10^6 A549 tumor cells in 100 μl PBS:Matrigel (1:1) were subcutaneously implanted into the left flank of all participating female athymic nude mice. In the following, primary tumor sizes were measured two times weekly (Monday and Friday) by calipering. […] For block randomization, a robust automated random number generation within individual blocks was used (MS-Excel 2003). On the following day (day 22), treatment was initiated in all groups (see Table 1 for details). Pioglitazone HCL (10 mg/kg) and pamapimod (100 mg/kg) were administered both alone (Groups 2 and 3, respectively) and in combination (Group 4) once daily p.o. on days 22-45. Animals of Group 1 were treated with 10 ml/kg Vehicle Control (0.9% NaCl, 0.5% Methyl Cellulose, 0.4% polysorbate 80, 0.9% benzyl alcohol, pH 4.8) once daily p.o. for the same time period. The study was terminated on day 46. All animals were sacrificed and necropsy was performed. Primary tumors were collected and wet weights and volumes determined. On day 0, 2×10^6 A549 tumor cells in 100 μl PBS:Matrigel (1:1) were subcutaneously implanted into the left flank of 54 female athymic nude mice. In the following, animal weights were measured three times weekly (Monday, Wednesday and Friday; balance: Mettler Toledo PB602-L). Primary tumor sizes were measured twice weekly by calipering (manual caliper, OMC Fontana). Tumor sizes were calculated according to the formula W^2×L/2 (L=length and W=the perpendicular width of the tumor, L>W). […] For block randomization, a robust automated random number generation within individual blocks was used (MS-Excel 2003). On the following day (day 22), treatment was initiated in all groups (see Table 1 for details). At necropsy, animals were weighed and killed by cervical dislocation. Primary tumors were collected and wet weights and volumes determined. Primary tumor volumes were analyzed using descriptive data analysis (Mean, SEM, Median and interquartile range). Statistical analysis of efficacy data was done using the Mann Whitney test and the unpaired t-test (in parentheses). All data analysis was performed using GraphPad Prism 5 from GraphPad Software, Inc., San Diego, USA.

[2] = tested on: CT26 wt_LLN cells; test: Antitumoral efficacy in orthotopic syngeneic CT26 wt colon carcinoma model; assay type: in vivo, female BALB/c mice; settings: necropsy day 20, pioglitazone HCl 25 mg/kg, pamapimod 100 mg/kg, p.o. once daily days 3-20; for antitumoral efficacy, primary tumor volume vs vehicle control / antitumoral efficacy, primary tumor weight vs vehicle control: alone or combined; for number of animals with metastases: of 12 animals per group, vehicle group six
Experimental: Evaluation of the Antitumoral Efficacy of Pamapimod and Pioglitazone Hydrochloride Alone and in Combination in an Orthotopic Syngeneic CT26 wt Colon Carcinoma Model in Female BALB/c Mice In Vivo The study consisted of 4 experimental groups, each containing 12 female BALB/c mice after randomization (for details, see Table 1 below). On day 0, 0.5×10^5 CT26 wt_LLN cells suspended in 15 μl PBS:Matrigel (1:2) were orthotopically implanted into the caecum of all participating animals. In the following period, primary tumor growth was monitored once weekly on days 2, 9, 15 and 20 using in vivo bioluminescence imaging. On day 2, 48 animals were randomized into 4 groups of 12 animals each according to the current in vivo bioluminescence imaging results (block of four after ranking). For block randomization, a robust automated random number generation within individual blocks was used (MS-Excel 2016). Thereby, detected luciferase signals served as randomization criteria. On the following day (day 3), treatment was initiated in all groups (see Table 1 for details). All treatments were performed at 10 ml/kg 1× daily p.o. on days 3-20. Pioglitazone HCL (25 mg/kg) and pamapimod (100 mg/kg) were administered both alone (Groups 2 and 3, respectively) and in combination (Group 4) once daily p.o. Animals of Group 1 were treated with 10 ml/kg Vehicle Control (0.9% NaCl, 0.5% Methyl Cellulose, 0.4% polysorbate 80, 0.9% benzyl alcohol, pH 4.8) once daily p.o. On day 20, the study was terminated due to tumor burden All animals were sacrificed and a necropsy performed. Primary tumors were collected and wet weights and volumes determined. On day 0, prior to surgery, and 24 h after surgery, all animals received the analgetic Meloxicam (Metacam®; 1 mg/kg) via subcutaneous injection. […] Thereby, cells were carefully injected in between caecum and mesentery. After the caecum had been repositioned, the skin was closed with wound clips. In the following, animal weights were measured three times weekly (Monday, Wednesday and Friday; balance: Mettler Toledo PB602-L). Primary tumor growth was monitored once weekly on days 2, 9, 15 and 20 using in vivo bioluminescence imaging. On day 2, 48 animals were randomized into 4 groups of 12 animals each according to the current in vivo bioluminescence imaging results (block of four after ranking). For block randomization, a robust automated random number generation within individual blocks was used (MS-Excel 2016). Thereby, detected luciferase signals served as randomization criteria. On the following day (day 3), treatment was initiated in all groups (see Table 2 for details). During the course of the study, tumor growth was monitored once weekly on days 2, 9, 15 and 20 using in vivo bioluminescence imaging. For this purpose, 150 mg/kg D-Luciferin were injected intraperitoneally (i.p.) into the mice 7 min before anesthetization. Light emission was measured 10 min post injection with a CCD-camera for 1-5 min using a NightOWL LB 981 bioluminescence imaging system (Berthold Technologies, Germany). On day 20, animals were killed by cervical dislocation. Primary tumors were collected, wet weights and volumes determined. Primary tumor volumes were analyzed using descriptive data analysis (Mean, SEM, Median and interquartile range). Statistical analysis of efficacy data was done using the Mann Whitney test and the unpaired t-test (in parentheses). All data analysis was performed using GraphPad Prism 5 from GraphPad Software, Inc., San Diego, USA.

Compound	primary tumor volume vs vehicle control [1]	primary tumor weight vs vehicle control [1]	antitumoral efficacy, primary tumor volume vs vehicle control [2]	antitumoral efficacy, primary tumor weight vs vehicle control [2]	number of animals with metastases [2]
Cn1c(=O)c(Oc2ccc(F)cc2F)cc2cnc(NC(CCO)CCO)nc21 [pamapimod, 6-(2,4-Difluorophenoxy)-2-[3-hydroxy-1-(2-hydroxyethyl)-propylamino]-8-methyl-8H-pyrido[2,3-d]pyrimidin-7-one]	noticeable decrease in both tumor volumes and tumor weights which was significant for tumor volume	nearly significant for tumor weight	significant in case of primary tumor volumes	just beyond significance in case of primary tumor weights	2 animals
CCc1ccc(CCOc2ccc(CC3SC(=O)NC3=O)cc2)nc1 (stereo not shown) [pioglitazone HCl, pioglitazone hydrochloride]	noticeable reduction in both tumor volumes and tumor weights compared to control which approached statistical significance	noticeable reduction in both tumor volumes and tumor weights compared to control which approached statistical significance	no antitumoral efficacy	no antitumoral efficacy	four
